From US6544166B1, “Treatment of human infertility” (priority 1999, dated 2003)
Marks after values point to notes of the source that are not given here.

Tests used:
mouse oocytes [1] = assay: In vitro fertilization of mouse oocytes after in vitro maturation with or without Hx arrest and FF-MAS induction (Example 4); type: cell-based, mice (C57Bl/6J×DBA/2J F1-hybrids)
Description: Aim: to optimize the culture conditions for mammalian oocytes by arresting the spontaneous maturation for 4 hours before initiating oocyte maturation by the means of adding a adequate concentration of FF-MAS.
Óocytes were obtained from immature (21-24 day old) female mice (C57Bl/6J×DBA/2J F1-hybrids, M&B, Denmark) weighing 13-16 grams, which were kept under controlled lighting and temperature. […] The ovaries were dissected out and the oocytes were isolated in Hx-medium (see below) under a stereomicroscope by manual rupture of the follicles using a pair of 27 gauge needles. Spherical oocytes displaying an intact germinal vesicle (GV) were selected and placed in α-minimum essential medium (α-MEM without ribonucleosides, Gibco BRL, Cat. No. 22561) supplemented with 3 mM hypoxanthine (Sigma Cat. No. H-9377), 8 mg/ml Human Serum Albumin (HSA, State Serum Institute, Denmark), 0.23 mM pyruvate (Sigma, Cat. No. S-8636), 2 mM glutamine (Flow Cat. No. 16-801), 100 IU/ml penicillin and 100 μg/ml streptomycin (Flow, Cat. No. 16-700). This medium was designated Hx-medium. The exact same medium without Hx was designated Hx-free medium
Thus oocytes were cultured in 4-well multidishes (Nunclon, Denmark) in which each well contained 0.4 ml of Hx-medium or medium without Hx (to allow for spontaneous maturation) and 35-45 oocytes.
Different treatment groups:
1. Controls: No inhibition, No FF-MAS
2. MAS: No inhibition and 10 μM FF-MAS
3. Inhibition and then spontaneous maturation: Hx-medium for 4 hours then transfer to Hx-free medium
4. Inhibition and FF-MAS induction: Hx-medium for 4 hours and addition of FF-MAS to Hx-medium
5. Inhibition and removal of inhibition and then subsequently FF-MAS induction: Hx-medium for 4 hours, rinse, transfer to Hx-free medium and addition of FF-MAS.
In vitro fertilization following 16-20 hours maturation.
Endpoints: Fertilization rate and in vitro embryo development.

[2] = system: cumulus enclosed human oocytes; assay: Maturation of cumulus enclosed human oocytes with FF-MAS; type: cell-based
Text: Although the use of FF-MAS improves the rate of fertility compared to the currently applied methods, it is still desirable to increase this rate even further.

mouse oocytes [3] = conditions: 24 hours meiotic arrest with hypoxanthine, then 16-30 hour culture in inhibitor-free medium; cited from earlier work
[4] = Treatment No 4: Hx-medium for 4 hours and addition of FF-MAS to Hx-medium
[5] = Treatment No 5: Hx-medium for 4 hours, rinse, transfer to Hx-free medium and addition of FF-MAS
[6] = Treatment No 3: Hx-medium (3 mM hypoxanthine) for 4 hours then transfer to Hx-free medium, no FF-MAS

Structure (SMILES)	Oocyte quality evaluated as fertilization rate and embryonic developmental capacity, compared with the other treatments (mouse oocytes [1]; 4th treatment modality: inhibition (Hx-medium) and FF-MAS induction)	Embryo development Rate (8-cell rate at 72 hours) (mouse oocytes [1]; Treatment No 2: no inhibition and 10 μM FF-MAS) [%]	Fertilization Rate (mouse oocytes [1]; Treatment No 2: no inhibition and 10 μM FF-MAS, IVF following 16-20 hours maturation) [%]	Embryo development Rate (8-cell rate at 72 hours) (mouse oocytes [1]; [4]) [%*]	Fertilization Rate (mouse oocytes [1]; [4]) [%*]	Embryo development Rate (8-cell rate at 72 hours) (mouse oocytes [1]; [5]) [%]	Fertilization Rate (mouse oocytes [1]; [5]) [%]	Effect on nuclear and cytoplasmic maturation [2]	Embryo development Rate (8-cell rate at 72 hours) (mouse oocytes [1]; [6]) [%]	Fertilization Rate (mouse oocytes [1]; [6]) [%]	Arrested oocytes that resumed maturation (mouse oocytes [3]) [%]
CC(C)=CCC[C@@H](C)[C@H]1CC=C2C3=C(CC[C@@]21C)[C@@]1(C)CC[C@H](O)C(C)(C)[C@@H]1CC3 [FF-MAS, 4,4-dimethyl-5α-cholesta-8,14,24-triene-3β-ol]	significantly superior to the other treatment alternatives	<10	<50	30	75	<10	<50	improves not only nuclear but cytoplasmic maturation	–	–	–
O=c1[nH]cnc2nc[nH]c12 [hypoxanthine, Hypoxanthine]	–	–	–	–	–	–	–	–	<10	<50	~100
